US20140336220A1, “COMPOSITION FOR PREVENTING OR TREATING OBESITY COMPRISING REBAMIPIDE” (The Catholic University of Korea Industry-Academic …, priority 2011, published 2014)

Experiments:
STAT3 = STAT3 inhibition in spleen of obesity induced arthritis model, confocal microscope; assay type: in vivo, mouse; details: FIG. 16
Excerpt: In order to investigate whether or not rebamipide can inhibit STAT3, the inventors of the present disclosure extracted the spleen from a mouse in each group, and embedded a frozen section (optimal cutting temperature compound: O.C.T. compound) using the extracted spleen and rapidly cooled the tissue in liquid nitrogen and attached the tissue on a slide to a thickness of 7 μm using a cryo microtome. Then, the section was fixed with acetone and coated with 10% normal goat serum and blocked from a non-specific reaction for 30 minutes. Thereafter, the section was reacted at 4° C. overnight with primary antibodies, that is, FITC-labeled anti-mFoxp3 Ab, FITC labeled anti-mCD4 Ab, PE-labeled anti-p-STAT3 s727 Ab, and PE-labeled anti-p-STAT3 y705 Ab, diluted with PBS (pH 7.5) at a ratio of 1:50 for analyzing STAT3. On the next day, the section was washed with a PBS solution, and a stained tissue was analyzed with a confocal microscope.

[1] = test system: animal models induced with obesity; assay: Serum cholesterol, LDL-cholesterol and triglyceride, dose comparison; assay type: in vivo, mouse; details: FIG. 7A
Method: An experimental animal group was etherized and blood was collected from the heart. The collected blood was put into a centrifuge tube and centrifuged at 8000 rpm for 8 minutes at 20° C., so that the serum was separated.

[2] = test system: animal group with obesity induced arthritis; assay: Type-II-collagen-specific IgG and IgG2a in serum by ELISA; assay type: in vivo, mouse; details: serum 1:100, vs obesity induced arthritis group, FIG. 13
Method: Blood was collected from the heart of a mouse in each group and centrifuged at 8000 rpm for 8 minutes at 20° C., so that the mouse serum of each group was obtained from a supernatant of the blood. The serum was diluted at a ratio of 1:100, and type-II-collagen-specific IgG and IgG2a were measured by an ELISA method.

[3] = test system: animal models induced with obesity; assay: Obesity improvement depending on dose: weight and liver; assay type: in vivo, mouse
Method: In order to check an obesity improvement effect depending on a treatment concentration of rebamipide, the inventors of the present disclosure orally administered rebamipide with a dose of 30 mg/kg and 100 mg/kg to an animal models induced with obesity prepared in Example 1 and then measured weights of the rebamipide treatment group and a mouse induced with obesity as a control group. For in vitro test, on the 63rd day after treatment with rebamipide, an experimental animal was killed and the liver of the mouse was extracted, and then, a size of the mouse and a weight of the liver were measured with the naked eye.

Th17 cells = assay: Th17 cell inhibition, flow cytometry of blood and spleen cells; assay type: cell-based, mouse; details: method: pre-treated at 1000 μM
Method: In order to stimulate CD4+ T cells 1×10 separated from the spleen under differentiation conditions of Th17 cells, the CD4+ T cells 1×10 were divided into a 24-well plate coated with 1 μg/Ml of an anti-CD3 antibody and treated with all of 1 μg/mL of an anti-CD28 antibody, 2 ng/ml of TGF-β, 20 ng/ml of IL-6, 10 ng/ml of anti-IL-4, and 10 ng/ml of anti-IFNr together suitable for stimulating Th17 cells. Then, the cells were stimulated for 1 hour. In this case, the cells were pre-treated with a rebamipide compound at a concentration of 1000 μM and cultured for 1 hour. The collected cells were allowed to react with a PerCP-anti-mouse CD4 antibody and a PE-anti-mouse phospho STATS antibody at 4° C. for 30 minutes in a dark field and washed with FACs buffer (0.002% sodium azide, 0.2% BSA/PBS). These cells were washed twice with Perm Wash buffer and re-floated on the FACs buffer and then analyzed with a flow cytometer.

[4] = test system: animal model with obesity induced arthritis; assay: Immunohistochemistry staining of inflammatory cytokines in joint; assay type: in vivo, mouse; details: immunochemical staining, vs obesity induced arthritis group, FIG. 14
Method: In order to check whether or not rebamipide of the present disclosure specifically can inhibit inflammatory cytokines such as IL-17, IL-6, IL-1b, TNF-a, and Nitrothyrosine in the joint of an animal model with obesity induced arthritis, the joint of a mouse was treated by the same method as illustrated in Example <9-2>. Then, inflammatory cytokines were stained by with an immunochemical staining method and analyzed with an optical microscope.

spleen cells = assay: Spleen cell proliferation after aCD3 stimulation, thymidine; assay type: cell-based, mouse; details: FIG. 7B
Method: The spleen was extracted from the mouse of each group and spleen cells 2×10^5 of each mouse were divided into a 96-well plate and stimulated with 0.5 μg/ml of aCD3 and then cultured for 3 days. 16 hours before acquirement, the cells were stimulated with thymidine of […], and then, 16 hours after stimulation, proliferation of the mouse cells was measured.

[5] = test system: animal models induced with obesity; assay: Adipocyte in liver frozen sections, haematoxylin and eosin and Oil red O staining; assay type: in vivo, mouse; details: oral administration, 51 days, H&E and Oil red O staining, vs control induced with obesity, FIG. 2
Method: In order to check fat inhibition effect of rebamipide, after supply of a high fat diet for 51 days was ended, a food was stopped at 12 hours before an experiment period was ended. Then, a frozen section (7 μm) obtained from a liver was haematoxylin and eosin staining and Oil red O staining. As a result of staining including the haematoxylin and eosin staining and Oil red O staining, it could be seen that in the liver obtained after oral administration with rebamipide, adipocyte were reduced as compared with a control induced with obesity (refer to FIG. 2).

[6] = 100 mg/kg oral, compared between doses

In the case of `O=C(NC(Cc1cc(=O)[nH]c2ccccc12)C(=O)O)c1ccc(Cl)cc1` (stereo not shown) [rebamipide, 2-(4-chlorobenzoylamino)-3-[2(1H)-quinolinon-4-yl]propionic acid], the “p-STAT3 s705 in spleen” value (STAT3) is reported as “decreased”, the “p-STAT3 s727 in spleen” value (STAT3) is reported as “decreased” and the LDL-cholesterol in serum ([1]; 30 mg/kg and 100 mg/kg oral) is reported as “statistically significantly reduced”. The cholesterol in serum ([1]; 30 mg/kg and 100 mg/kg oral) was “statistically significantly reduced”, the triglyceride in serum ([1]; 30 mg/kg and 100 mg/kg oral) was “statistically significantly reduced” and the “reduction effect on serum cholesterol, LDL-cholesterol and triglyceride” value [1, 6] was “generally highest”. The “type-II-collagen-specific IgG2a in serum” value [2] was “significantly decreased”, the “type-II-collagen-specific IgG in serum” value [2] was “significantly decreased” and the weight ([3]; 30 mg/kg and 100 mg/kg oral, vs control group, FIG. 6A) was “statistically reduced”. For the same molecule, the weight reduction effect ([3]; 30 mg/kg oral, FIG. 6A) was “a weight reduction effect was illustrated”, the liver appearance ([3]; 100 mg/kg oral, 63rd day, FIG. 6B) was “bright red similarly to a liver of a normal control mouse” and the weight reduction effect ([3]; 100 mg/kg oral, FIG. 6A) was “highest”. The “Th17 cells in blood” value (Th17 cells; FIG. 4A) was “significantly reduced”, the “Th17 cells in spleen” value (Th17 cells; FIG. 4B) was “significantly reduced” and the “infiltration of IL-1b in joint” value [4] was “inhibited”. For the same molecule, the “infiltration of IL-6 in joint” value [4] was “inhibited”, the “infiltration of IL-17 in joint” value [4] was “inhibited” and the “infiltration of Nitrothyrosine in joint” value [4] was “inhibited”. For the same molecule, the “infiltration of TNF-a in joint” value [4] was “inhibited”, the “effect on proliferation of spleen cells” value (spleen cells; [6]) was “higher” and the “proliferation of spleen cells” value (spleen cells; spleen cells of orally treated mice, 0.5 μg/ml aCD3, 3 days) was “inhibition of cell proliferation was decreased”. The adipocyte in liver [5] was “remarkably reduced”.
